Experimental data published in patent US20220023281A1, “HETEROCYCLIC SPIRO-COMPOUNDS AS AM2 RECEPTOR INHIBITORS” (THE UNIVERSITY OF SHEFFIELD, priority 2018, published 2022).

Target: T1, AM2 receptor-expressing cells (1321N1 cells transfected with CALCRL+RAMP3) (Homo sapiens, UniProt O60896+Q16602)
T1 construct: host or cells: 1321N1 cells
Test: AM2 receptor inhibition, LANCE cAMP agonist-antagonist competition assay (AM2 D2 protocol)
Type: cell-based
Conditions: inhibition of AM induced cAMP in 1321N1 cells expressing CALCRL+RAMP3; read-out: AM2 D2 protocol: pIC50 (converted)
Experimental: Compounds were assessed for their ability to inhibit ligand-induced elevations of cAMP, using the Perkin Elmer LANCE cAMP assay using commercially-available cells expressing a specific receptor of interest using the following general procedure:
Compounds were prepared in dimethyl sulfoxide (DMSO—99.9% pure) (Sigma Aldrich, Cat #: D4540) added to powder stocks to produce a 20 mM solution (100% DMSO) that was sonicated at 37° C. for 10 minutes to fully dissolve the compounds. The 20 mM stocks were diluted further in DMSO to produce a 2 mM solution that was sonicated at 37° C. for 10 minutes. 2 mM stocks were dissolved in assay/stimulation buffer to produce a 400 μM solution that was sonicated at 37° C. for 10 minutes for all cAMP assays. All stocks were stored at −20° C. Then serial dilution (Dilution factor: 10) was performed to achieve the desire experimental concentrations.
Competition assays were performed according to the manufactures instructions using LANCE® TR-FRET cAMP assay kit (Perkin Elmer, Cat #: AD0264). Serial dilutions (3 μl/well) of the molecules were plated in a 384-well OptiPlate (Perkin Elmer, Cat #: 6007299) in duplicates. Appropriate controls (100% stimulation: Forskolin and 0% stimulation: Vehicle control) (6 μl/well) were included in each plate for data normalization. Following the compound addition, 6 μl of G-protein coupled receptor overexpressing cells/Alexa Fluor antibody solution (1:100 dilution) was added in each well at a desired density of 2500 cells/well. The overexpressing cell lines were purchased from DiscoveRx, Birmingham, UK. After spinning the plate at 1000 rpm for 1 minute and vortexing briefly, the cells were pre-incubated with the compounds for 30 minutes at room temperature (covered). Then 3 μl of the equivalent peptide ligand (EC50 dose) was added to all the wells except vehicle and forskolin controls. The plate were then spun down at 1000 rpm for 1 minute and once finished they were vortexed briefly and covered. Cells were stimulated in the presence of the ligands for 15 minutes at room temperature. After stimulation 12 μl of detection mix (Europium-Chelate streptavidin/biotinylated cAMP tracer solution) was added to all wells and incubated for 60 minutes at room temperature. The plate was then read on the Enspire multimode Plate reader (Perkin Elmer), at; 320/340 nm excitation and 615/665 nm emission was recorded.
Assay/Stimulation Buffer (30 mL)—pH 7.4 • 28 mL Hank's Balanced salt solution (+MgCl2, +CaCl2))—(Thermo Fisher Cat #:14170112) • 150 μl HEPES (1M)—(Thermo Fisher Cat #:15630080) • 400 μl Stabilizer (DTPA) Purified BSA (7.5%)—(Perkin Elmer, Cat #: CR84-100) • 60 μl IBMX (250 mM)—(Sigma Aldrich, Cat #: 15879)
The ability of a compound to inhibit the AM induced cAMP activation in AM2 receptor-expressing cells (1321N1 cells transfected with CALCRL+RAMP3, sourced from DiscoverX catalogue number 95-0169C6) was assessed using the protocol above.

T1 sequence (Q16602 23-461): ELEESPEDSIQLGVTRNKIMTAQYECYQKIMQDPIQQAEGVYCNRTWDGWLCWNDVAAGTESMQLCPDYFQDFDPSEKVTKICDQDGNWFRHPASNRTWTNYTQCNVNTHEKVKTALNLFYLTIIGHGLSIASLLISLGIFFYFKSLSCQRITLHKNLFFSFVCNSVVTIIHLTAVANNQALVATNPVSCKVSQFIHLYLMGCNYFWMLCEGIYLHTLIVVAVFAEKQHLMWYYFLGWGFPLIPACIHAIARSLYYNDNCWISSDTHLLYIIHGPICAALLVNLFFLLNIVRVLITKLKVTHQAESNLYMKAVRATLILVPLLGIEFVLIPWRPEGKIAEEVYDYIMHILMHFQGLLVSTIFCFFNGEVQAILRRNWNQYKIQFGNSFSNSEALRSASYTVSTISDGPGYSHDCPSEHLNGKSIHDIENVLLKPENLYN
T1 sequence (O60896 24-148): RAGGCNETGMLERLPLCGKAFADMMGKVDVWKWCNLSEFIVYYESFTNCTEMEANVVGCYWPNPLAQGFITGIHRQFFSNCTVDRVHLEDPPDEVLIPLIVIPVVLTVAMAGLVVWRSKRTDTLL

| Compound | IC50 |
| --- | --- |
| CC1(C(=O)N(CC(=O)Nc2ccc3c(c2)C[C@@]2(C3)C(=O)Nc3ncccc32)[C@H]2CCCNC2)CCN(C(=O)c2ccccn2)CC1 [Example 17, 4-Methyl-N-(2-oxo-2-(((R)-2′-oxo-1,1′,2′,3-tetrahydrospiro[indene-2,3′-pyrrolo[2,3-b]pyridin]-5-yl)amino)ethyl)-1-picolinoyl-N—((S)-piperidin-3-yl)piperidine-4-carboxamide] | 18.6 nM |
| CC1(C(=O)N(CC(=O)Nc2ccc3c(c2)C[C@@]2(C3)C(=O)Nc3ncccc32)[C@H]2CCCNC2)CCN(C(=O)CN2CCNCC2)CC1 [Example 18, 4-Methyl-N-(2-oxo-2-(((R)-2′-oxo-1,1′,2′,3-tetrahydrospiro[indene-2,3′-pyrrolo[2,3-b]pyridin]-5-yl)amino)ethyl)-1-(2-(piperazin-1-yl)acetyl)-N—((S)-piperidin-3-yl)piperidine-4-carboxamide] | 67.6 nM |
| CCC1(C(=O)N(CC(=O)Nc2ccc3c(c2)C[C@@]2(C3)C(=O)Nc3ncccc32)[C@H]2CCCNC2)CCN(C(C)=O)CC1 [Example 19, 1-Acetyl-4-ethyl-N-(2-oxo-2-(((R)-2′-oxo-1,1′,2′,3-tetrahydrospiro[indene-2,3′-pyrrolo[2,3-b]pyridin]-5-yl)amino)ethyl)-N—((S)-piperidin-3-yl)piperidine-4-carboxamide] | 14.1 nM |
| CNC(=O)N1CCC(C)(C(=O)N(CC(=O)Nc2ccc3c(c2)C[C@@]2(C3)C(=O)Nc3ncccc32)[C@H]2CCCNC2)CC1 [Example 20, N1,4-Dimethyl-N4-[2-oxo-2-[[(3R)-2-oxospiro[1H-pyrrolo[2,3-b]pyridine-3,2′-indane]-5′-yl]amino]ethyl]-N4-[(3S)-3-piperidyl]piperidine-1,4-dicarboxamide] | 56.2 nM |
| CC1(C(=O)N(CC(=O)Nc2ccc3c(c2)C[C@@]2(C3)C(=O)Nc3ncccc32)[C@H]2CCCNC2)CCN(C(=O)N2CCCC2)CC1 [Example 21, 4-Methyl-N-(2-oxo-2-(((R)-2′-oxo-1,1′,2′,3-tetrahydrospiro[indene-2,3′-pyrrolo[2,3-b]pyridin]-5-yl)amino)ethyl)-N—((S)-piperidin-3-yl)-1-(pyrrolidine-1-carbonyl)piperidine-4-carboxamide] | 27.5 nM |
| O=C(CN(C(=O)N1CCCC1)[C@H]1CCCNC1)Nc1ccc2c(c1)C[C@@]1(C2)C(=O)Nc2ncccc21 [Example 22, N-(2-Oxo-2-(((R)-2′-oxo-1,1′,2′,3-tetrahydrospiro[indene-2,3′-pyrrolo [2,3-b]pyridin]-5-yl)amino)ethyl)-N—((S)-piperidin-3-yl)pyrrolidine-1-carboxamide] | 245 nM |
| CC(=O)N1CCN(C(=O)N(CC(=O)Nc2ccc3c(c2)C[C@@]2(C3)C(=O)Nc3ncccc32)[C@H]2CCCNC2)CC1 [Example 23, 4-Acetyl-N-(2-oxo-2-(((R)-2′-oxo-1,1′,2′,3-tetrahydrospiro[indene-2,3′-pyrrolo[2,3-b]pyridin]-5-yl)amino)ethyl)-N—((S)-piperidin-3-yl)piperazine-1-carboxamide] | 2880 nM |
| CC(C)(C)C(=O)N(CC(=O)Nc1ccc2c(c1)CC1(C2)C(=O)Nc2ncccc21)[C@H]1CCNC1 (stereo partly drawn) [Example 24, N-(2-Oxo-2-((2′-oxo-1,1′,2′,3-tetrahydrospiro[indene-2,3′-pyrrolo[2,3-b]pyridin]-5-yl)amino)ethyl)-N—((S)-pyrrolidin-3-yl)pivalamide] | 132 nM |
| CC(C)(C)C(=O)N(CC(=O)Nc1ccc2c(c1)CC1(C2)C(=O)Nc2ncccc21)C1CCCCNC1 (centres unmarked) [Example 25, N-(Azepan-3-yl)-N-(2-oxo-2-((2′-oxo-1,1′,2′,3-tetrahydrospiro[indene-2,3′-pyrrolo[2,3-b]pyridin]-5-yl)amino)ethyl)pivalamide] | 129 nM |
| CC(C)(C)C(=O)N(CC(=O)Nc1ccc2c(c1)CC1(C2)C(=O)Nc2ncccc21)C1CCCNCC1 (centres unmarked) [Example 26, N-(Azepan-4-yl)-N-(2-oxo-2-((2′-oxo-1,1′,2′,3-tetrahydrospiro[indene-2,3′-pyrrolo[2,3-b]pyridin]-5-yl)amino)ethyl)pivalamide] | 479 nM |
| CC(C)(C)C(=O)N(CC(=O)Nc1ccc2c(c1)C[C@@]1(C2)C(=O)Nc2ncccc21)C1CC2CNC1C2 (stereo partly drawn) [Example 30, N-(2-Azabicyclo[2.2.1]heptan-6-yl)-N-(2-oxo-2-(((R)-2′-oxo-1,1′,2′,3-tetrahydrospiro[indene-2,3′-pyrrolo[2,3-b]pyridin]-5-yl)amino)ethyl)pivalamide] | 3020 nM |
